Assay [1] addresses TRAF2 and NCK-interacting protein kinase (Homo sapiens) (UniProt Q9UKE5).
The target in assay [2] is Calcium/calmodulin-dependent protein kinase kinase 2 (Homo sapiens, UniProt Q96RR4).
For assay [3], the target named is Serine/threonine-protein kinase 26 (Homo sapiens) (UniProt Q9P289).
Assay [4] addresses Ribosomal protein S6 kinase alpha-3 (Homo sapiens) (UniProt P51812).
The target of assay [5] is T1, Lymphokine-activated killer T-cell-originated protein kinase (Homo sapiens) (UniProt Q96KB5).
T1 sequence (whole entry): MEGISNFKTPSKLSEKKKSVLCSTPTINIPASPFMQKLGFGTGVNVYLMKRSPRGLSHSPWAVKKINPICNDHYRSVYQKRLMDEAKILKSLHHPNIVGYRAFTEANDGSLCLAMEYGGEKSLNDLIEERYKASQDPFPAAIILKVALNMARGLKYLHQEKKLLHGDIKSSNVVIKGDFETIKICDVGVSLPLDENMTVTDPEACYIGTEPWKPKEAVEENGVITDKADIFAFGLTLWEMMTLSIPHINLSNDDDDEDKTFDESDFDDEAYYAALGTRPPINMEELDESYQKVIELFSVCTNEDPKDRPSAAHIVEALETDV

Assay [6] deals with Glycogen synthase kinase-3 beta (Homo sapiens, UniProt P49841).
Chain of Glycogen synthase kinase-3 beta (P49841 whole entry, looked up): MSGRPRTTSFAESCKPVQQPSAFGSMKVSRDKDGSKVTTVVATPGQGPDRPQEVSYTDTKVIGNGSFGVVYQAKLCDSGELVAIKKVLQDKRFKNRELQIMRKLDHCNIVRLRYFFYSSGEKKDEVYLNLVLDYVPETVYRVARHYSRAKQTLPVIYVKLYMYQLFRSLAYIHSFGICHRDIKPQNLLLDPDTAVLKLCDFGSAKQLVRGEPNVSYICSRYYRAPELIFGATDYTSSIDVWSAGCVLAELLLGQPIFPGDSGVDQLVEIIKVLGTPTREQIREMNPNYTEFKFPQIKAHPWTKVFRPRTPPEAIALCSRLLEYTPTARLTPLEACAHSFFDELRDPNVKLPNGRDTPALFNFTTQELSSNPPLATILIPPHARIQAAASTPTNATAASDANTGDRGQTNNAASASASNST
Assay [7] concerns the target T2, Serine/threonine-protein kinase VRK1 (Homo sapiens) (UniProt Q99986).
T2 sequence (whole entry): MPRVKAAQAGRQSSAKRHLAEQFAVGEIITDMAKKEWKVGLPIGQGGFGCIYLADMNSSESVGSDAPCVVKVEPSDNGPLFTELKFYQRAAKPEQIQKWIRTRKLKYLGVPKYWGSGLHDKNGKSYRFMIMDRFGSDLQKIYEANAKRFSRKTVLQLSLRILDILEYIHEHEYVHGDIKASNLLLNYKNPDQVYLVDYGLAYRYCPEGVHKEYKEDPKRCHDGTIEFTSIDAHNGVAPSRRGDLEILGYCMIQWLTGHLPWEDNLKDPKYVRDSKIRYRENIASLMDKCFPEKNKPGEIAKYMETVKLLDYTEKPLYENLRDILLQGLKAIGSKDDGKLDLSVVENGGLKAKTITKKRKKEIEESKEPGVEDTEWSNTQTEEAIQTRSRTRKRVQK

In assay [8] the target is T3, Serine/threonine-protein kinase 17A (Homo sapiens) (UniProt Q9UEE5).
T3 sequence (whole entry): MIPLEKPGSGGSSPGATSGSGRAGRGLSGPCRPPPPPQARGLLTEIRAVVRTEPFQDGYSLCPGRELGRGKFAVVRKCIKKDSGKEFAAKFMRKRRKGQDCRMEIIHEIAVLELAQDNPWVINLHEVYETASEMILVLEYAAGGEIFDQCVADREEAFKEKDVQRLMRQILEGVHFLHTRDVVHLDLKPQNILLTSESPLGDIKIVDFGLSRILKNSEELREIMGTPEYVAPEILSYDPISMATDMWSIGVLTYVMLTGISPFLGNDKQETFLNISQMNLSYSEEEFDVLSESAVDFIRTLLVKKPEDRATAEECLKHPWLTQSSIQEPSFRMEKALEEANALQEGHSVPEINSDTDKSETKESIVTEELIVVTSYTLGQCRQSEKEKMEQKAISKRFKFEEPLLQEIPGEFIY

Assay [9] has as its target Calcium/calmodulin-dependent protein kinase type II subunit beta (Homo sapiens) (UniProt Q13554).
Assay [10] deals with Calcium/calmodulin-dependent protein kinase type II subunit delta (Homo sapiens) (UniProt Q13557).
Chain of Calcium/calmodulin-dependent protein kinase type II subunit delta (Homo sapiens) (Q13557 whole entry): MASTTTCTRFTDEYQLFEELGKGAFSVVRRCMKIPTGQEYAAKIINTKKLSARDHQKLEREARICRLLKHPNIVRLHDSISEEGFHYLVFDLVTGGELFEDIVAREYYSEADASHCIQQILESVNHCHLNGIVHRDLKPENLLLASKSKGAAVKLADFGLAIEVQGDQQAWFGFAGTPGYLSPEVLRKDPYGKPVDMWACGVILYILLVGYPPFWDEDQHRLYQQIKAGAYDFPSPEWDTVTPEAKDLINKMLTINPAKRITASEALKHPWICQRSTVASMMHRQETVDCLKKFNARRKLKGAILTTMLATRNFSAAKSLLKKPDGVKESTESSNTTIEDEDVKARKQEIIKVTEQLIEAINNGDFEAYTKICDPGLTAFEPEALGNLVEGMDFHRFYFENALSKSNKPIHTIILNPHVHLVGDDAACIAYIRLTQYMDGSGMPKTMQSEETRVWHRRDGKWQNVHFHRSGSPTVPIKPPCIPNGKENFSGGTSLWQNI
The target in assay [11] is Cyclin-dependent kinase 6 (Homo sapiens) (UniProt Q00534).
Chain of Cyclin-dependent kinase 6 (Homo sapiens) (Q00534 whole entry): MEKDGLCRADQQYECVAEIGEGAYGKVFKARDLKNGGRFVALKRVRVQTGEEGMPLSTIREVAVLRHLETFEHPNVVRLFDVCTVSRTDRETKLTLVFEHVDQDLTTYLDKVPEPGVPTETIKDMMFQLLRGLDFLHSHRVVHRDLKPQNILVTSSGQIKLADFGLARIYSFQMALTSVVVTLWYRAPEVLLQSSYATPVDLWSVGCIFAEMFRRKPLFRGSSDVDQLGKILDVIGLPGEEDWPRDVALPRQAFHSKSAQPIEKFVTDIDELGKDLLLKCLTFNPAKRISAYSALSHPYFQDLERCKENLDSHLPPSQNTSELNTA
Assay [12] has as its target Serine/threonine-protein kinase PAK 4 (Homo sapiens) (UniProt O96013).
Assay [13] concerns the target T4, Myotonin-protein kinase (Homo sapiens) (UniProt Q09013).
T4 sequence (whole entry): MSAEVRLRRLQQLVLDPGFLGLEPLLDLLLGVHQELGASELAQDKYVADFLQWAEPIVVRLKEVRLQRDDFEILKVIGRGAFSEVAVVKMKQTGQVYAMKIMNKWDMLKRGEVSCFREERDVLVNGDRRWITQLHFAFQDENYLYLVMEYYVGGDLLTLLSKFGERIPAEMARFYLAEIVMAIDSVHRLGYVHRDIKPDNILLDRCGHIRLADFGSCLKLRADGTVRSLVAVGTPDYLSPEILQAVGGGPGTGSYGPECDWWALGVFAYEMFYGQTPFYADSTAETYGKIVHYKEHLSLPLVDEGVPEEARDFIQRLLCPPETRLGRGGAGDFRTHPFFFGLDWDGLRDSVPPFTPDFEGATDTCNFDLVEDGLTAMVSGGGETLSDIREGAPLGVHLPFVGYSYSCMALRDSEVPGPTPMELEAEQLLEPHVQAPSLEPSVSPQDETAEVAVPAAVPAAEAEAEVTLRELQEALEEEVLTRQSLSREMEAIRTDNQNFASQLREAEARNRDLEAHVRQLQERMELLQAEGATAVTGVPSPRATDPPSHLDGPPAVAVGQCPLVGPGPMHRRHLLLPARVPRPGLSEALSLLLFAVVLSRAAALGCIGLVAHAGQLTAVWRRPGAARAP

Assay [14] has as its target Serine/threonine-protein kinase 10 (Homo sapiens) (UniProt O94804).
Assay [15] has as its target Dual specificity protein kinase CLK1 (Homo sapiens) (UniProt P49759).

Chain of Serine/threonine-protein kinase PAK 4 (Homo sapiens) (O96013 whole entry, looked up): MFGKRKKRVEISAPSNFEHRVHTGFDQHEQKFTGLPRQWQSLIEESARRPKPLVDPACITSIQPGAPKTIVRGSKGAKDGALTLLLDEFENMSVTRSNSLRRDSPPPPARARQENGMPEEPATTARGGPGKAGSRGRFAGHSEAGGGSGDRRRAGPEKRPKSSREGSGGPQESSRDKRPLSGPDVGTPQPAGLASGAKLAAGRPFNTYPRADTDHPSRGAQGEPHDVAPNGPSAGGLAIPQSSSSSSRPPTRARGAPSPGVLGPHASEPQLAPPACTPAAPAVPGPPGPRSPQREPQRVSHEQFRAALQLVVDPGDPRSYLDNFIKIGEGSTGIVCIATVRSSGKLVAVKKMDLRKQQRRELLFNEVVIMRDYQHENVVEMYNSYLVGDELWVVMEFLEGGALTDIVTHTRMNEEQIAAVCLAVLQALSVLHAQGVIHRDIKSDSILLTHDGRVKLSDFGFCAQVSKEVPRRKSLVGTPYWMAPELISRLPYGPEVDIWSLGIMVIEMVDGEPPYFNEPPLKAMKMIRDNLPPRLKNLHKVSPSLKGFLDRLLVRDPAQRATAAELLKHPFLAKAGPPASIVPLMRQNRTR
Chain of Dual specificity protein kinase CLK1 (Homo sapiens) (P49759 whole entry, looked up): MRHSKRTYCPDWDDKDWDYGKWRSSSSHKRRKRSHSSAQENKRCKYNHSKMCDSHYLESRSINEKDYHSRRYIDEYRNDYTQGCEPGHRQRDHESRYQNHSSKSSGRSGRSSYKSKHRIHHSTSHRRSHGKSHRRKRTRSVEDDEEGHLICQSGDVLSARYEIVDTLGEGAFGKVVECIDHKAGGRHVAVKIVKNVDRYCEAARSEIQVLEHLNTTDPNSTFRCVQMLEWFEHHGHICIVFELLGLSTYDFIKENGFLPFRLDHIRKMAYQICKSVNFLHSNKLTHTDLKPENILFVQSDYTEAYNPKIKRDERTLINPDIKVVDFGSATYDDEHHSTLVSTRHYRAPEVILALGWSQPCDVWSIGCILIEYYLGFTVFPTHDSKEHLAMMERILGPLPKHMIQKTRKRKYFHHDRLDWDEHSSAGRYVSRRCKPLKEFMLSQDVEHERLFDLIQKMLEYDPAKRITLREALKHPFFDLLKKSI
Chain of Calcium/calmodulin-dependent protein kinase kinase 2 (Q96RR4 2-588 limits assumed): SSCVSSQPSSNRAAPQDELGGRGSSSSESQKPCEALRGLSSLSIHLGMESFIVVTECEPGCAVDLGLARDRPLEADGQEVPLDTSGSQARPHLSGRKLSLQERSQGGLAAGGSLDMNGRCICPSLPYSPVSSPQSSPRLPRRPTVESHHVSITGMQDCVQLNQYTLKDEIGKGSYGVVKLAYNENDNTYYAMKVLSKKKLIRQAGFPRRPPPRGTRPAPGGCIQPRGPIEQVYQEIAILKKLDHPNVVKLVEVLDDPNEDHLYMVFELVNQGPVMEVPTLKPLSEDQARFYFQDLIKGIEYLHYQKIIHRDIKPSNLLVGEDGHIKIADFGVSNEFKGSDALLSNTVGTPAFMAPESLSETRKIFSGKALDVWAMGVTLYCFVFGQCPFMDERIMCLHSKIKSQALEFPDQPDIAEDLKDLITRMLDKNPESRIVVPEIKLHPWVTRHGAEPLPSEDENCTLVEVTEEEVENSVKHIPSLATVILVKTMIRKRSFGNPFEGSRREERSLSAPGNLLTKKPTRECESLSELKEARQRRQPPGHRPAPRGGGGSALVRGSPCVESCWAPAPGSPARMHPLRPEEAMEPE
Chain of Serine/threonine-protein kinase 10 (Homo sapiens) (O94804 whole entry, looked up): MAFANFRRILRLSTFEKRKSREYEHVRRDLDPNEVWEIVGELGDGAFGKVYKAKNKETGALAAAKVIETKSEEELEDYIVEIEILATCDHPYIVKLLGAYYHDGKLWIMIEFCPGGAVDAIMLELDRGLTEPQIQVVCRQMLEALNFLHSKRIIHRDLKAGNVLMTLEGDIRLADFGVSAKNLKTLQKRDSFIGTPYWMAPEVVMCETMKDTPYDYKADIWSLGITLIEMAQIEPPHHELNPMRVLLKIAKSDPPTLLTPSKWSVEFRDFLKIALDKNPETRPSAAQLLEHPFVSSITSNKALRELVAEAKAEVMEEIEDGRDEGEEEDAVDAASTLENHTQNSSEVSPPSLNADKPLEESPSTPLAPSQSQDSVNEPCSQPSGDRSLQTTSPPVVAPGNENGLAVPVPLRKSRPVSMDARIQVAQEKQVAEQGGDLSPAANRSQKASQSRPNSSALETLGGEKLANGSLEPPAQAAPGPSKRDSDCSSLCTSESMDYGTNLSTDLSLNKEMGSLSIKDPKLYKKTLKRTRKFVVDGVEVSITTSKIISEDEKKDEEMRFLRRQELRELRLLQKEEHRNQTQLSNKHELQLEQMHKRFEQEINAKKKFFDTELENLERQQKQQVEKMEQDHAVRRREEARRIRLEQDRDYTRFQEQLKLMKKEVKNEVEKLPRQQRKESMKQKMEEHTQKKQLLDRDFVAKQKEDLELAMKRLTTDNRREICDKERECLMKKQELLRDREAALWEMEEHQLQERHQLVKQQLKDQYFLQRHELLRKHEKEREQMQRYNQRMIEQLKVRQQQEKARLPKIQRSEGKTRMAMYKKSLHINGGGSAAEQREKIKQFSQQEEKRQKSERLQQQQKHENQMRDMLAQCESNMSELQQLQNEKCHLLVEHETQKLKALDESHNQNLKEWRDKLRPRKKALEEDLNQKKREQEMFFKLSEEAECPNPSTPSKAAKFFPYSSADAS
Chain of Ribosomal protein S6 kinase alpha-3 (Homo sapiens) (P51812 whole entry): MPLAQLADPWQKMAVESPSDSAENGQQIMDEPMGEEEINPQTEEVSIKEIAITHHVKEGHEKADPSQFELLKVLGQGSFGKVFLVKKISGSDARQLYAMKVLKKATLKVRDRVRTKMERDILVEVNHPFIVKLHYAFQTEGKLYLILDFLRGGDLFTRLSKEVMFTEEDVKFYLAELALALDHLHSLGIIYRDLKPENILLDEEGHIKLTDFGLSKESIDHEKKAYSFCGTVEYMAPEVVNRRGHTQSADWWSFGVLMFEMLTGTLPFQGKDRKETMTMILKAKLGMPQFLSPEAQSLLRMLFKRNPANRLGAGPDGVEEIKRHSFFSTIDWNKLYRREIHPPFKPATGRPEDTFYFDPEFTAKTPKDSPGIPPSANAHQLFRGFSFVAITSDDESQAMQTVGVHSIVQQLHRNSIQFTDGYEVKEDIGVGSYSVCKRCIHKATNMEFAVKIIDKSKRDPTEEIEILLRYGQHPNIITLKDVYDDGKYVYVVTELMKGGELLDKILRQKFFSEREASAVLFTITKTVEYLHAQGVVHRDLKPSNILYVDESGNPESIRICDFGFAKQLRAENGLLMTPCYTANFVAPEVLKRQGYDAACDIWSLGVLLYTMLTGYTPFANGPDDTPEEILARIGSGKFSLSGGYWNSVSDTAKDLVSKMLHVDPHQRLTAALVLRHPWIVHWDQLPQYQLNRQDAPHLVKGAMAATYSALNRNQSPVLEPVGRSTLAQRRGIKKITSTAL

`O=c1sn(Cc2ccccc2)c(=S)n1Cc1ccccc1`: the ΔTm was 0 °C in assay [1]; -1.2 °C in assay [2]; 0.5 °C in [3]; 0 °C in assay [4]; -0.4 °C in assay [5]; -1 °C in [6]. The shift in melting temperature (ΔTm) was 0.6 °C in [7]; 0.2 °C in [8]; 1 °C in [9]; 0.6 °C in assay [10]; -0.4 °C in assay [11]; 1.2 °C in assay [12]. The ΔTm in assay [13] is 0.5 °C; in [14] it was 0.9 °C; in [15], 0.2 °C.
With `O=C1Nc2ccc(I)cc2/C1=C1/Nc2ccccc2/C1=N\O`, the ΔTm in assay [1] is 5.2 °C; in assay [2] it was 6.9 °C; in assay [3] it was 0 °C; in [4] it was 2.7 °C; in [5] it was -2.4 °C; in [6], 8.8 °C. Besides, the ΔTm was found to be 0.1 °C in [7]; 7 °C in assay [8]; 1.2 °C in assay [9]; 3.6 °C in assay [10]; 0.8 °C in assay [11]; 2.3 °C in assay [12]. The ΔTm amounted to 1 °C in [13], 0 °C in assay [14] and 3.2 °C in assay [15].
`NC1=NC(=O)/C(=C2\CCNC(=O)c3[nH]c(Br)cc32)N1` [HYMENIALDISINE]: the shift in melting temperature (ΔTm) in [1] amounted to 4.7 °C; in assay [2] it was 3.4 °C; in assay [3] it was 1.8 °C; in assay [4] it was 4.2 °C; in assay [5] it was 0.1 °C; in assay [6], 7.4 °C. The shift in melting temperature (ΔTm) is 2 °C in assay [7]; 14.8 °C in [8]; 0.4 °C in assay [9]; 0 °C in assay [10]; 1.1 °C in assay [11]; 1.6 °C in assay [12]. Moreover, the shift in melting temperature (ΔTm) in [13] is 2.1 °C; in [14], 4.2 °C; in [15] it was 9.2 °C.
In the case of `O=C(O)/C=C/c1cc(CO)ccc1CO`, the ΔTm in [1] worked out at 0.8 °C; in assay [2], 0.1 °C; in assay [3], 0.2 °C; in [4] it was 0.3 °C; in assay [5] it was 0.8 °C; in assay [6], 0.1 °C. The ΔTm in assay [7] was determined as 0.4 °C; in [8] it was 0.6 °C; in [9] it was 0.4 °C; in assay [10], 0 °C; in assay [11], 0.3 °C; in assay [12], 0.1 °C. Further, the figures for the ΔTm in [13], in assay [14] and in [15] were -0.1 °C, 0.5 °C and 0.2 °C, respectively.
Regarding `CC(C)c1cc(/C=C(\C#N)C(=O)NCCCc2ccccc2)cc(C(C)C)c1O`, the ΔTm in [1] is 0 °C; in assay [2], 1 °C; in [3] it was 2.5 °C; in assay [4] it was 1 °C; in assay [5], -0.2 °C; in [6], -1.2 °C. Further, the ΔTm in [7] came to 1 °C; in assay [8], 0.8 °C; in assay [9], 1.5 °C; in [10], 1 °C; in assay [11], 0.3 °C; in assay [12], 1.2 °C. In addition, the values for the ΔTm in assay [13], in assay [14] and in assay [15] were 1 °C, -0.1 °C and 2.8 °C, respectively.
Regarding `Ic1cccc(CSc2nnc(-c3ccncc3)o2)c1`, the ΔTm was -0.3 °C in [1]; -0.6 °C in assay [2]; -0.6 °C in assay [3]; -0.6 °C in assay [4]; 0.3 °C in assay [5]; 7.1 °C in [6]. Also, the ΔTm in assay [7] was -0.2 °C; in [8], 0.3 °C; in assay [9], 0.1 °C; in assay [10] it was -0.2 °C; in [11] it was -0.2 °C; in [12], -0.1 °C. Also, the thermal shift (ΔTm) is -0.1 °C in assay [13], 1.4 °C in assay [14] and 1.7 °C in assay [15].

Usually ΔTm stands for the change in melting temperature against a reference sample.
